Reference: publication PMC8916850, “Preparation of Spice Extracts: Evaluation of Their Phytochemical, Antioxidant, Antityrosinase, and Anti-α-Glucosidase Properties Exploring Their Mechanism of Enzyme Inhibition with Antibrowning and Antidiabetic Studies In Vivo” (BioMed Research International, 2022)

Target: T1, Mushroom tyrosinase
T1 construct: gene PPO1
Assay: dopachrome formation, absorbance at […] nm
Assay type: biochemical
Settings: L-DOPA 0.85 mM, phosphate buffer 20 mM pH 6.8, 37 °C; 10 min preincubation; methods name kojic acid as the standard, table and text name hydroquinone

MeOH: 131.34 ± 9.82 µg/mL
Structure (SMILES): Oc1ccc(O)cc1 [hydroquinone]
